Test results: ChEMBL document CHEMBL3734669, “Δ(5)-Cholenoyl-amino acids as selective and orally available antagonists of the Eph-ephrin system” (Eur J Med Chem, 2015)
Activity calls are given as the source filed them. No cut-off for these calls is given here.

Legend:
[1] = Cmax in mouse at 30 mg/kg, po administered as single dose by HPLC-MS analysis; type: ADME, organism-based; design: dose 30 mg/kg, route oral; details: in vivo
[2] = Metabolic stability in mouse liver S9 fractions assessed as compound remaining at 1 uM after 1 hr by HPLC-ESI-MS/MS analysis in presence of NADPH regenerating system; type: ADME, subcellular, Liver S9 fraction; details: read-out: Stability
[3] = AUC (0 to t) in mouse at 30 mg/kg, po administered as single dose by HPLC-MS analysis; type: ADME, organism-based; details: in vivo
Ephrin type-A receptor 7 = Ephrin type-A receptor 7 (Homo sapiens, UniProt Q15375); assay: Displacement of biotinylated ephrin-A1-Fc from EphA7 (unknown origin) preincubated for 1 hr followed by biotinylated-ephrin-A1-Fc addition measured after 4 hrs by ELISA
[4] = biological target: T1, G-protein coupled bile acid receptor 1 (Homo sapiens) (UniProt Q8TDU6); assay: Agonist activity at TGR5 (unknown origin) assessed as cAMP level up to 30 uM; type: functional
T1 sequence (whole entry): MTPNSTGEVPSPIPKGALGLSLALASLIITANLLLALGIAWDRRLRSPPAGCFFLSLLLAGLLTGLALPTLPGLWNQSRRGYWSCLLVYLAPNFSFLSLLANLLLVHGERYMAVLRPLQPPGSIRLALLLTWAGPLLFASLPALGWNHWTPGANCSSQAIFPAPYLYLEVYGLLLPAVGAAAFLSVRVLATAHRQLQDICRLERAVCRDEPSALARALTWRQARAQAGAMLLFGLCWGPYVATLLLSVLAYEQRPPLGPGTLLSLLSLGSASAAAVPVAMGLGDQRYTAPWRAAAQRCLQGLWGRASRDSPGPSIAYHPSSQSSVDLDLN

[5] = biological target: T2, Ephrin type-B receptor 4 (Homo sapiens) (UniProt P54760); assay: Displacement of biotinylated ephrin-B1-Fc from EphB4 (unknown origin) preincubated for 1 hr followed by biotinylated-ephrin-B1-Fc addition measured after 4 hrs by ELISA
T2 sequence (whole entry): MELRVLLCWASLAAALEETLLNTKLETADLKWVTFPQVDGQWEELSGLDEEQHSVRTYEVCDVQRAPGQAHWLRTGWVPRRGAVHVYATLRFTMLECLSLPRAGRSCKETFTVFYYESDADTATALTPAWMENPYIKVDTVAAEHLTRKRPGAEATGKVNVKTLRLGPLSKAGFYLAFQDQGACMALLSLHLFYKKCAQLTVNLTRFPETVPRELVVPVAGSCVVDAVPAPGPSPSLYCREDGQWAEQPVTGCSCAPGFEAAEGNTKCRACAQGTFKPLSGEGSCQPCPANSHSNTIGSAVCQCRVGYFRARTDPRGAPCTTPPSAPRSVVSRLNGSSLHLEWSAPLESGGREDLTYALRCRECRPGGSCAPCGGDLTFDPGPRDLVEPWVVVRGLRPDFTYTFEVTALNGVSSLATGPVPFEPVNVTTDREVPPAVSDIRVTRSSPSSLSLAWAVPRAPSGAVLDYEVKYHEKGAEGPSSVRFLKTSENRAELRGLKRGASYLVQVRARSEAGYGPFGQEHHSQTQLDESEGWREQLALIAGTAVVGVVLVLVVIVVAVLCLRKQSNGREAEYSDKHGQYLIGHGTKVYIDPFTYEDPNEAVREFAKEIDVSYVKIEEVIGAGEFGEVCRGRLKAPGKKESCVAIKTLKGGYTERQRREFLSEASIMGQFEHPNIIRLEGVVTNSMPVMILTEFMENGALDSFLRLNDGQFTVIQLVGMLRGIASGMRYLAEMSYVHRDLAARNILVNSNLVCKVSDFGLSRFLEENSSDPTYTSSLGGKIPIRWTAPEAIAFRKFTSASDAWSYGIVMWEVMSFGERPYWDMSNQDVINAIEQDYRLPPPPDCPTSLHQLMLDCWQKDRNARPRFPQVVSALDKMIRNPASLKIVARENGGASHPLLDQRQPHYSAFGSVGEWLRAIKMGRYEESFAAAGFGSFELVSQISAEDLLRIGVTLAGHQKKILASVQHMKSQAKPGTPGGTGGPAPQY

[6] = Cytotoxicity against human PC3 cells at 10 to 30 uM after 2 hrs by LDH release assay; type: cell-based; details: pc-3, 2 h
Ephrin type-A receptor 5 = Ephrin type-A receptor 5 (Homo sapiens, UniProt P54756); assay: Displacement of biotinylated ephrin-A1-Fc from EphA5 (unknown origin) preincubated for 1 hr followed by biotinylated-ephrin-A1-Fc addition measured after 4 hrs by ELISA
[7] = Tmax in mouse at 30 mg/kg, po administered as single dose by HPLC-MS analysis; type: ADME, organism-based; details: in vivo

Chain of Ephrin type-A receptor 5 (P54756 whole entry): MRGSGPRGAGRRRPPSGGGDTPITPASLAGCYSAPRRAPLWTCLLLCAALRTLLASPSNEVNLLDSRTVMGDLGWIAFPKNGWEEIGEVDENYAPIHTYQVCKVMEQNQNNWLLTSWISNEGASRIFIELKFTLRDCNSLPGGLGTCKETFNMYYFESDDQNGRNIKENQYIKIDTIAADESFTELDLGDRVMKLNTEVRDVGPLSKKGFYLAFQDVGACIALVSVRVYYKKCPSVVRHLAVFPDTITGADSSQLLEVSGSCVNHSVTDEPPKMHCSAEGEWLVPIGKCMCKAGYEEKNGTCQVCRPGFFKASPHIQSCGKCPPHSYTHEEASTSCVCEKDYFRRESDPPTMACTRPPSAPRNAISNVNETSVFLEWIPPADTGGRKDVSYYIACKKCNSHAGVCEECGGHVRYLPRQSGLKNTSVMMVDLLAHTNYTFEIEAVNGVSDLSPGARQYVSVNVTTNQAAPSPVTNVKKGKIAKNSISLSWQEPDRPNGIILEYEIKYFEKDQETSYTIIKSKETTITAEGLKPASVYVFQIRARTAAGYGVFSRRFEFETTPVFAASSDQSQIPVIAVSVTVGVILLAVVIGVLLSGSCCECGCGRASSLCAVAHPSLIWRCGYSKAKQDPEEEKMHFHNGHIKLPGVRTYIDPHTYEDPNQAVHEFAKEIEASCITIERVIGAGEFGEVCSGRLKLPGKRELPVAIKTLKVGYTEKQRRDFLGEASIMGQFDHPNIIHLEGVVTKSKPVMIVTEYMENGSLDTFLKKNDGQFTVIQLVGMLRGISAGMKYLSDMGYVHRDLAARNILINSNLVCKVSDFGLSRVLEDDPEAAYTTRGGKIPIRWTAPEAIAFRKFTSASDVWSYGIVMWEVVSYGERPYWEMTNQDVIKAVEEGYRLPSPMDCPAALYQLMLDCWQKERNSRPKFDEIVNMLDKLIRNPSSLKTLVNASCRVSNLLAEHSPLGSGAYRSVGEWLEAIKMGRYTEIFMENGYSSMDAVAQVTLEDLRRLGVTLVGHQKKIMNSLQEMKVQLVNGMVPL

C[C@H](CCC(=O)N[C@@H](Cc1c[nH]c2ccccc12)C(=O)O)[C@H]1CC[C@H]2[C@@H]3CC=C4C[C@@H](O)CC[C@]4(C)[C@H]3CC[C@]12C
Cmax [1]: 1400 nM | remaining at 1 h, 1 µM [2]: 70% | AUC(0-t) [3]: 573 ng·h/mL | IC50 (Ephrin type-A receptor 7): 2500 nM | inhibition (Ephrin type-A receptor 7): Dose-dependent effect | Activity [4]: inactive | inhibition [5]: Dose-dependent effect | Activity [6]: Non-toxic | IC50 (Ephrin type-A receptor 5): 2600 nM | inhibition (Ephrin type-A receptor 5): Dose-dependent effect | Tmax [7]: 30 min
